Data as given in ChEMBL document CHEMBL3758092, “Discovery and preclinical evaluation of potent, orally bioavailable, metabolically stable cyclopropylindolobenzazepine acylsulfonamides as thumb site 1 inhibitors of the hepatitis c virus NS5B RNA-dependent, RNA polymerase” (Bioorg Med Chem Lett, 2016).

Experiments:
Hepatitis C virus [1] = experiment: Antiviral activity against HCV1a by replicon assay; assay type: functional, organism-based, Hepacivirus hominis; settings: subtype 1a
Hepatitis C virus [2] = experiment: Antiviral activity against HCV1b by replicon assay; assay type: functional, organism-based, Hepacivirus hominis; settings: genotype 1b
[3] = Half life in human liver microsomes; assay type: ADME
[4] = Drug uptake in rat at 10 mg/kg, po liver after 6 hrs; assay type: ADME, organism-based; settings: read-out: Drug uptake
[5] = Half life in cynomolgus monkey liver microsomes; assay type: ADME, Macaca fascicularis
[6] = Ratio of drug level in liver to plasma in rat at 10 mg/kg, po after 6 hrs; assay type: ADME, organism-based
[7] = Clearance in rat at 10 mg/kg, po; assay type: ADME, organism-based; settings: in vivo
Liver [8] = experiment: Drug uptake in rat at 10 mg/kg, po liver after 24 hrs; assay type: ADME, organism-based; settings: in vivo, BLD = below limit of detection
[9] = Oral bioavailability in rat at 10 mg/kg; assay type: ADME, organism-based; settings: in vivo
[10] = Permeability of the compound at pH 7.4 by PAMPA; assay type: ADME; settings: read-out: permeability
[11] = Plasma concentration in rat at 10 mg/kg, po after 6 hrs; assay type: ADME, organism-based
in vitro = settings: rat, liver microsomes
Description: Metabolic stability in rat liver microsomes assessed as compound remaining after 10 mins

[12] = biological target: Voltage-gated inwardly rectifying potassium channel KCNH2 (Homo sapiens, UniProt Q12809); experiment: Inhibition of human ERG by FLIPR assay
Hepatitis C virus [13] = experiment: Antiviral activity against HCV1b by replicon assay in presence of 40% human serum; assay type: functional, organism-based, Hepacivirus hominis; settings: genotype 1b
[14] = Ratio of drug level in liver to plasma in rat at 10 mg/kg, po after 48 hrs; assay type: ADME, organism-based
[15] = Drug uptake in rat at 10 mg/kg, po liver after 4 hrs; assay type: ADME, organism-based; settings: read-out: Drug uptake
Liver [16] = experiment: (§1) Drug uptake in rat at 10 mg/kg, po liver after 48 hrs; assay type: ADME, organism-based; settings: in vivo, 48 h, BLD = below limit of detection
[17] = Ratio of drug level in liver to plasma in rat at 10 mg/kg, po after 4 hrs; assay type: ADME, organism-based
[18] = Ratio of drug level in liver to plasma in rat at 10 mg/kg, po after 24 hrs; assay type: ADME, organism-based
[19] = as §1; assay type: ADME, organism-based; settings: liver, read-out: Drug uptake

Sequence of Voltage-gated inwardly rectifying potassium channel KCNH2 (Q12809 whole entry): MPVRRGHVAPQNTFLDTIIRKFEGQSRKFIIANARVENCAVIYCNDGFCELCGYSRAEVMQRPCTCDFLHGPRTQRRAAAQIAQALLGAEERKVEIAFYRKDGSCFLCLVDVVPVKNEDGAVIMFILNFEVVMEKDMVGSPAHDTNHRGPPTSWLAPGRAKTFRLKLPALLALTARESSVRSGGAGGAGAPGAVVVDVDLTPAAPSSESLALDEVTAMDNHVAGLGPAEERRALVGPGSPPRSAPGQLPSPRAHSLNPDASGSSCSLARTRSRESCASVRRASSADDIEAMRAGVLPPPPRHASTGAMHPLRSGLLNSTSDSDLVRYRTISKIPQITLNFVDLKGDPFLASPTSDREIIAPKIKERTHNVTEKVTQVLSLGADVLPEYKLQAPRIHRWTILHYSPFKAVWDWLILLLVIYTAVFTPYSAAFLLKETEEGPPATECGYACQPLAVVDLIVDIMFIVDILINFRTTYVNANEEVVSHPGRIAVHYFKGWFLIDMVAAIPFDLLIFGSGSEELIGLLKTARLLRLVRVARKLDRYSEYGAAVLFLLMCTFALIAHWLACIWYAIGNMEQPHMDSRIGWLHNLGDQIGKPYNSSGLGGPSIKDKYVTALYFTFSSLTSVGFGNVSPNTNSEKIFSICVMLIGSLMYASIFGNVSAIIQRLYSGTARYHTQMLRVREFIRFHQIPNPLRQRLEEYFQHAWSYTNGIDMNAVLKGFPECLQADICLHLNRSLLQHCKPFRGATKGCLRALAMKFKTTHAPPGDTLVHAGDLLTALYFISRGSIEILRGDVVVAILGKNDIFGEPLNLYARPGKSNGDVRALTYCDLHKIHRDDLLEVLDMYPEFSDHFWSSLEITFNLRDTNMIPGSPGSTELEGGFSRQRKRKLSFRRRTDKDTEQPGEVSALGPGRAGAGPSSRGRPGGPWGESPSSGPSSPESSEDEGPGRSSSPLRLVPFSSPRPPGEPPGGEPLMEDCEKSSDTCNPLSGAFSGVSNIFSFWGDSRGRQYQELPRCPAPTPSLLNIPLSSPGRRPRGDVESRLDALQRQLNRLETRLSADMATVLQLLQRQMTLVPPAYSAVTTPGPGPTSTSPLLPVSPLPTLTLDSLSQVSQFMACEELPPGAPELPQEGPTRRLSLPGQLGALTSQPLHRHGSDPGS

SMILES | EC50 (Hepatitis C virus [1]) [nM] | EC50 (Hepatitis C virus [2]) [nM] | half-life [3] [min] | concentration at 6 h [4] [µM] | half-life [5] [min] | Kp at 6 h [6] | CL/F [7] [mL/min/kg] | bioavailability [9] [%] | also measured
COc1ccc2c(c1)C1CC1(C(=O)N1C3CCC1CN(C)C3)Cn1c-2c(C2CCCCC2)c2ccc(C(=O)NS(=O)(=O)CC(C)(C)C)cc21 (racemic) | 23 | 41 | 48 | 65.3 | 8.4 | 14.5 | 4.1 |  | 
COc1ccc2c(c1)C1CC1(C(=O)N1C3CCC1CN(C)C3)Cn1c-2c(C2CCCCC2)c2ccc(C(=O)NS(C)(=O)=O)cc21 (racemic) | 13 | 18 | 179 |  | 80 |  | 54.4 | 3.6 | Drug uptake (Liver [8]): BLD
CCCS(=O)(=O)NC(=O)c1ccc2c(C3CCCCC3)c3n(c2c1)CC1(C(=O)N2C4CCC2CN(C)C4)CC1c1cc(OC)ccc1-3 (racemic) | 8 | 21 | 112 | 13.1 | 37 | 120 | 16.5 |  | 
COc1ccc2c(c1)[C@H]1C[C@@]1(C(=O)N1C3CCC1CN(C)C3)Cn1c-2c(C2CCCCC2)c2ccc(C(=O)NS(=O)(=O)C(C)C)cc21 | 196 | 148 |  |  |  |  |  |  | 
CCN(C)S(=O)(=O)NC(=O)c1ccc2c(C3CCCCC3)c3n(c2c1)CC1(C(=O)N2C4CCC2CN(C)C4)CC1c1cc(OC)ccc1-3 (racemic) | 14 | 13 | 27.3 | 36.4 |  |  |  |  | Papp [10]: 56.1 ×10⁻⁶ cm/s; concentration at 6 h [11]: 178 nM; remaining at 10 min (in vitro): 94%
COc1ccc2c(c1)[C@@H]1C[C@]1(C(=O)N1C3CCC1CN(C)C3)Cn1c-2c(C2CCCCC2)c2ccc(C(=O)NS(=O)(=O)CC(C)C)cc21 |  | 2 | > 72 |  | 24.4 | 47 |  | 41 | IC50 [12]: 16.6 µM; EC50 (Hepatitis C virus [13]): 80 nM; Kp at 48 h [14]: 4; remaining at 10 min (in vitro): 100%
COc1ccc2c(c1)C1CC1(C(=O)N1C3CCC1CN(C)C3)Cn1c-2c(C2CCCCC2)c2ccc(C(=O)NS(=O)(=O)N(C)C)cc21 (racemic) |  | 12 | 76 |  |  |  |  |  | Papp [10]: 71.3 ×10⁻⁶ cm/s; concentration at 4 h [15]: 69 µM; remaining at 10 min (in vitro): 100%
COc1ccc2c(c1)C1CC1(C(=O)N1C3CCC1CN(C)C3)Cn1c-2c(C2CCCCC2)c2ccc(C(=O)NS(=O)(=O)C3CCC3)cc21 (racemic) | 23 | 40 | > 60 | 38.8 | 46.5 | 67 | 5.2 |  | 
COc1ccc2c(c1)C1CC1(C(=O)N1C3CCC1CN(C)C3)Cn1c-2c(C2CCCCC2)c2ccc(C(=O)NS(=O)(=O)C3CC3)cc21 (racemic) | 7 | 15 | 179 |  | 130 | 66 | 26.9 | 4.9 | concentration at 4 h [15]: 6.4 µM
COc1ccc2c(c1)C1CC1(C(=O)N1C3CCC1CN(C)C3)Cn1c-2c(C2CCCCC2)c2ccc(C(=O)NS(=O)(=O)C(C)(C)C)cc21 (racemic) | 8 | 23 | > 60 |  | 44 |  | 13.5 | 12.4 | Drug uptake (Liver [8]): BLD
COc1ccc2c(c1)C1CC1(C(=O)N1C3CCC1CN(C)C3)Cn1c-2c(C2CCCCC2)c2ccc(C(=O)NS(=O)(=O)C3CCCC3)cc21 (racemic) | 24 | 62 | > 60 | 35.3 | 18.2 | 36 | 7.7 |  | 
CCC(C)S(=O)(=O)NC(=O)c1ccc2c(C3CCCCC3)c3n(c2c1)CC1(C(=O)N2C4CCC2CN(C)C4)CC1c1cc(OC)ccc1-3 (racemic) | 15 | 37 | 18 |  | 38 |  |  |  | 
COc1ccc2c(c1)C1CC1(C(=O)N1C3CCC1CN(C)C3)Cn1c-2c(C2CCCCC2)c2ccc(C(=O)NS(=O)(=O)N3CCC3)cc21 (racemic) | 12 | 24 | 135 | 0.8 | 55 |  |  |  | Papp [10]: 66.5 ×10⁻⁶ cm/s; concentration at 6 h [11]: 20 nM; remaining at 10 min (in vitro): 100%
COc1ccc2c(c1)C1CC1(C(=O)N1C3CCC1CN(C)C3)Cn1c-2c(C2CCCCC2)c2ccc(C(=O)NS(=O)(=O)CC3CCC3)cc21 (racemic) | 15 | 56 | 45 |  | 9 |  | 13.3 | 19.1 | Drug uptake (Liver [16]): BLD
COc1ccc2c(c1)[C@@H]1C[C@]1(C(=O)N1[C@@H]3CC[C@H]1CN(C)C3)Cn1c-2c(C2CCCCC2)c2ccc(C(=O)NS(=O)(=O)N(C)C)cc21 [BECLABUVIR] |  |  | 45 |  |  | 10 |  | 43 | IC50 [12]: 26 µM; Kp at 4 h [17]: 2; EC50 (Hepatitis C virus [13]): 40 nM; Kp at 24 h [18]: 10; remaining at 10 min (in vitro): 100%
COc1ccc2c(c1)C1CC1(C(=O)N1C3CCC1CN(C)C3)Cn1c-2c(C2CCCCC2)c2ccc(C(=O)NS(=O)(=O)C(C)C)cc21 (racemic) | 20 | 28 |  | 26.2 |  | 13 |  | 65 | 
COc1ccc2c(c1)C1CC1(C(=O)N1C3CCC1CN(C)C3)Cn1c-2c(C2CCCCC2)c2ccc(C(=O)NS(=O)(=O)CC3CC3)cc21 (racemic) | 5 | 22 | 200 |  | 39 |  | 19.6 | 13.7 | concentration at 48 h [19]: 150 nM
CCS(=O)(=O)NC(=O)c1ccc2c(C3CCCCC3)c3n(c2c1)CC1(C(=O)N2C4CCC2CN(C)C4)CC1c1cc(OC)ccc1-3 (racemic) | 17 | 23 | 206 | 7.9 | 72 | 108 | 40 |  | 
CCCCS(=O)(=O)NC(=O)c1ccc2c(C3CCCCC3)c3n(c2c1)CC1(C(=O)N2C4CCC2CN(C)C4)CC1c1cc(OC)ccc1-3 (racemic) | 15 | 45 | 73 |  | 19 |  |  |  | 
COc1ccc2c(c1)C1CC1(C(=O)N1C3CCC1CN(C)C3)Cn1c-2c(C2CCCCC2)c2ccc(C(=O)NS(=O)(=O)CC(C)C)cc21 (racemic) | 14 | 22 | > 60 | 88.3 | 24.5 | 150 | 9.2 |  | 
COc1ccc2c(c1)[C@@H]1C[C@]1(C(=O)N1C3CCC1CN(C)C3)Cn1c-2c(C2CCCCC2)c2ccc(C(=O)NS(=O)(=O)C3CCC3)cc21 |  | 5 | 70.5 |  | 65.5 |  | 13.4 | 28 | concentration at 48 h [19]: 70 nM; EC50 (Hepatitis C virus [13]): 70 nM; remaining at 10 min (in vitro): 87.8%
